Data as given in US10087171B2, “Crystalline forms of cadazolid” (ACTELION PHARMACEUTICALS LTD, priority 2016, dated 2018).

Legend:
Type in all cases: physicochemical
[1] = Gravimetric water vapor sorption analysis GVS1 at 25° C.; conditions: for hysteresis in GVS: 0% to 95% r.h.
Experimental: GVS1: Projekt Messtechnik SPS 11-100n water vapor sorption analyzer. The samples are placed in aluminum crucibles on top of a microbalance. They are equilibrated at 25° C. and 50% r.h. and are then subjected to a pre-defined humidity program at 25° C. in the order 50-0-95-50% r.h. A scanning rate of r.h.=5%/h is used and ‘isohumid’ equilibration periods are included at the extreme values.

[2] = Gravimetric water vapor sorption analysis GVS2 at 25° C.
From the text: GVS2: Surface Measurement Systems Ltd. DVS-1 water vapor sorption analyzer. The sample is placed in a Pt pan suspended on a micro balance and is exposed to a N2 flow with 95% r.h. at the beginning and then decreasing with a constant rate of 5%/h.

[3] = Suspension equilibration experiments
Experimental: 27 mg of cadazolid in form A and 25 mg of cadazolid in form C (obtainable as described in Example 3) are suspended in 1 mL H2O, treated for 5 min in an ultrasound bath and agitated at 25° C. The solid is filtered off after 5 days and analyzed. The obtained material is cadazolid in form B.
The following suspension equilibration experiments are performed in organic solvent (mixture of methanol and dichloromethane) and in water:
26 mg of cadazolid in form A and 25 mg of cadazolid in form C are suspended in 1 mL MeOH/CH2Cl21:3 and agitated at 25° C. The solid is filtered off after 5 days and is cadazolid in form A.
27 mg of cadazolid in form A and 26 mg of cadazolid in form C are suspended in 1 mL MeOH/CH2Cl2 1:3 and agitated at 5° C. for 2 days. Some solid is isolated by drying on a filter paper and consists of cadazolid in form A.
29 mg of cadazolid in form A and 26 mg of cadazolid in form C are suspended in 1 mL H2O, treated for 5 min in an ultrasound bath and agitated at 5° C. for 2 days. Some solid is isolated by drying on filter paper and consists of cadazolid in form B.

[4] = Relative thermodynamic stability deduced from melting points and melting enthalpies; conditions: at room temperature
Experimental: DSC data are collected on a Perkin Elmer DSC 7. The instrument is calibrated for energy and temperature using certified indium. Samples are sealed in hermetically closed gold crucibles under N2, heating rates of 10° C./min or 100° C./min, scan from −50° C. to variable end temperatures. Peak temperatures are reported for melting points.
The relative thermodynamic stability of polymorphic forms can be deduced from their melting points and melting enthalpies (L. Yu, Journal of Pharmaceutical Sciences 84 (1995) 966-974). These values are summarized in the Table 6 below for form A and C of cadazolid: […]

[5] = MeOH/CH2Cl2 1:3, 25° C., 5 days

Row | SMILES | solid form after GVS (post GVS XRPD) [1] | weight increase between 0% and 95% r.h. [1] | weight increase between 0% and 95% r.h. as equivalents H2O [1] | hysteresis in GVS [1] | water content of the solid at 40% r.h. [1] | hygroscopicity classification ([1]; 40% to 95% r.h., adapted methodology, classification according to Pharm. Eur 8.0, section 5.11) | water content of the solid at 95% r.h. [1] | continuous weight loss during 6 h equilibration at 95% r.h. [2] | r.h. at which the water content of form A is reached ([2]; decreasing r.h.) | additional, accelerated weight loss upon lowering the r.h. ([2]; r.h. lowered at a rate of 5%/h) | solid form obtained after suspension equilibration of form A and form C together ([3]; H2O, 5° C., 2 days) | solid form obtained after suspension equilibration of form A and form C together ([3]; H2O, 25° C., 5 days) | solid form obtained after suspension equilibration of form A and form C together ([3]; MeOH/CH2Cl2 1:3, 5° C., 2 days) | solid form obtained after suspension equilibration of form A and form C together [3, 5] | relative thermodynamic stability concluded from suspension equilibration and GVS2 data ([3]; at 25° C., both at low and high relative humidity) | relative thermodynamic stability of polymorphic forms A and C [4] | maximum difference in water content between 0% and 95% r.h. [1]
1 | O=C(O)c1cn(C2CC2)c2cc(N3CCC(O)(COc4ccc(N5C[C@H](CO)OC5=O)cc4F)CC3)c(F)cc2c1=O [amorphous state, 1-cyclopropyl-6-fluoro-7-{4-[2-fluoro-4-((R)-5-hydroxymethyl-2-oxo-oxazolidin-3-yl)-phenoxymethyl]-4-hydroxy-piperidin-1-yl}-4-oxo-1,4-dihydro-quinoline-3-carboxylic acid] | amorphous as tested by a post GVS | A weight increase of about 7% (circa | 2.3 equivalents H2O) between 0% and | 95% r.h. with a significant hysteresis | 1.8% | considered as being hygroscopic (adapted | 7.17% | – | – | – | – | – | – | – | – | – | –
2 | O=C(O)c1cn(C2CC2)c2cc(N3CCC(O)(COc4ccc(N5C[C@H](CO)OC5=O)cc4F)CC3)c(F)cc2c1=O [crystalline form B, 1-cyclopropyl-6-fluoro-7-{4-[2-fluoro-4-((R)-5-hydroxymethyl-2-oxo-oxazolidin-3-yl)-phenoxymethyl]-4-hydroxy-piperidin-1-yl}-4-oxo-1,4-dihydro-quinoline-3-carboxylic acid] | – | – | – | – | – | – | – | 30% during 6 h equilibration at 95% r.h. is | the r.h. at a rate of 5%/h. At 80% r.h., the water | loss of approx. 15% is observed upon lowering | – | – | – | – | – | – | –
3 | O=C(O)c1cn(C2CC2)c2cc(N3CCC(O)(COc4ccc(N5C[C@H](CO)OC5=O)cc4F)CC3)c(F)cc2c1=O [crystalline form C, 1-cyclopropyl-6-fluoro-7-{4-[2-fluoro-4-((R)-5-hydroxymethyl-2-oxo-oxazolidin-3-yl)-phenoxymethyl]-4-hydroxy-piperidin-1-yl}-4-oxo-1,4-dihydro-quinoline-3-carboxylic acid] | – | – | – | – | 0.33% | – | 2.52% | – | – | – | form B | form B | form A | form A | – | – | –
4 | O=C(O)c1cn(C2CC2)c2cc(N3CCC(O)(COc4ccc(N5C[C@H](CO)OC5=O)cc4F)CC3)c(F)cc2c1=O [crystalline form A, 1-cyclopropyl-6-fluoro-7-{4-[2-fluoro-4-((R)-5-hydroxymethyl-2-oxo-oxazolidin-3-yl)-phenoxymethyl]-4-hydroxy-piperidin-1-yl}-4-oxo-1,4-dihydro-quinoline-3-carboxylic acid] | – | – | – | No hysteresis | 0.81% | – | 1.81% | – | – | – | form B | form B | form A | form A | thermodynamically more stable than form C | more thermodynamically stable form | ~0.5 mol/mol
